Legend:
[1] = biological target: T1, pyruvate dehydrogenase phosphatase isolated from bovine heart (Bos taurus, UniProt P35816); experiment: Stimulation of pyruvate dehydrogenase (PDH) phosphatase; assay type: biochemical
T1 construct: pyruvate dehydrogenase phosphatase isolated from bovine heart; from tissue; host or cells: bovine heart
T1 sequence (P35816 72-538): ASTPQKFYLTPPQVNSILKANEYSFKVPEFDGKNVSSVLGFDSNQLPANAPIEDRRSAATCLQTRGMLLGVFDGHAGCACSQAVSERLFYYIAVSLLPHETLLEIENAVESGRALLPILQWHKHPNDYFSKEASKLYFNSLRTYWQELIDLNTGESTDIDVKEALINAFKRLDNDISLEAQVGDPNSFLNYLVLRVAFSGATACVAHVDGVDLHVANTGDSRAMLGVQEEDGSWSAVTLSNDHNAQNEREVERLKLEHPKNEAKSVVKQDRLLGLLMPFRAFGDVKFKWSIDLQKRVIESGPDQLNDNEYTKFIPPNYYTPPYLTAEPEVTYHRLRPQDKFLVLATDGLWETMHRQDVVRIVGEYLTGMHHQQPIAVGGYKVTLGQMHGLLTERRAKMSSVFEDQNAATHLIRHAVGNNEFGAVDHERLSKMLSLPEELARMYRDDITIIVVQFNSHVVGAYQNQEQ
T1 sequence (O46504 32-878 partner limits assumed): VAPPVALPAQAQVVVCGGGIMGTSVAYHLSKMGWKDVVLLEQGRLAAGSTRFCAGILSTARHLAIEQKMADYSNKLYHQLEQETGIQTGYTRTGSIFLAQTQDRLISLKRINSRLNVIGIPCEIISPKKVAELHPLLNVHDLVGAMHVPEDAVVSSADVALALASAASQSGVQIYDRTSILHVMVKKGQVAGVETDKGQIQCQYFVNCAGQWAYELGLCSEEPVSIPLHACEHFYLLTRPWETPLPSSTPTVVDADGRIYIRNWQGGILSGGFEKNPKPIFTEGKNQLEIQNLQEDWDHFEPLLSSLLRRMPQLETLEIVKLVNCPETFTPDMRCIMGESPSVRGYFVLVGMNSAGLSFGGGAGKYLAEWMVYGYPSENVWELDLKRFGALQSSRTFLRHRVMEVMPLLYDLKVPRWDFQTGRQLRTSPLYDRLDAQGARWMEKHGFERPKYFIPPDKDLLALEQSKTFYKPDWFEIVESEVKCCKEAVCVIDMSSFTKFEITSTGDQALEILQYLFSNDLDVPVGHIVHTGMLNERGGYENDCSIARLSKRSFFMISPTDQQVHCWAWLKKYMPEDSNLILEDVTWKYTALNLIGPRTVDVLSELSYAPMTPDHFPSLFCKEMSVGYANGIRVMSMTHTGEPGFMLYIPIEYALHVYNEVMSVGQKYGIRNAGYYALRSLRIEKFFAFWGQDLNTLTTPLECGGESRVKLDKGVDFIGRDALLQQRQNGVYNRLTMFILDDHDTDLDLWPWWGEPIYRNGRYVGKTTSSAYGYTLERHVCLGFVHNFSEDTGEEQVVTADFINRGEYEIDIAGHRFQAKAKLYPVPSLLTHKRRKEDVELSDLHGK
Method: Pyruvate dehydrogenase complex (PDC) and the PDH phosphatase were prepared and stored at −80° C. until use. The assay for both PDH phosphatases, in the presence of absence of insulin mediator, was based upon the initial rate of activation of inactivated, phosphorylated PDH complex. […] A two stage assay was used to quantitate the phosphatase activity. A sample of inactivated PDC (50 μL) was preincubated at 30° C. with 1 mg/mL fat-free BSA, 10 mM MgCl2, 0.1 mM CaCl2 and […] DTT in 20 mM potassium phosphate buffer at pH 7.0 (total volume 250 μL) for three minutes. At this time, 10 μL of the PDH phosphatase and 10 μL of IPG were added and the incubation continued for a further 2 min. At the end of this time, 200 μL of the mix was removed and added to 100 μL of 300 mM NaF. The activated PDH was determined at the second stage photometrically by measuring the rate of production of NADH. One hundred microliters of the stopped reaction were added to 1 mL of reaction mixture containing 50 mM potassium phosphate buffer at pH 8.0, 2.5 mM β-NAD^+, 0.2 mM TPP, 0.13 mM coenzyme A, 0.32 mM DTT and 2 mM sodium pyruvate. The production of NADH was followed at 340 nm for 5 min.
Three samples of liver P-type used. All were suspended on day of use at the rate of 1 g liver in […] water. All three preparations were tested before and after treatment with dithizone, while the one preparation was also treated with Mn after dithizone to attempt to reactivate it. The reactivation procedure was to preincubate a de-metallized sample with 2.7 mM Mn for 15 min before it was added to the inactivated PDH mix.
The P-1 sample used here was the same as that used in previous experiment although a second tube of that composite sample. The dithizone treated sample was the same as that used previously. For reactivation, the de-medalist sample was pre-incubated for 15 mins with either 2.7 mM Mn, 1.8 mM Zn or 2.7 mM Mn-1.8 mM Zn. All samples tested on normal assay system using 10 μl P′ase and 5 ul of sample.

Glycogen synthase = Glycogen synthase activity in rat fat cells; assay type: cell-based; settings: 5 min incubation, 20 μl insulin (25 mU/ml) or 10 μl placenta IPG
Method: Glycogen synthase activity was assayed as follows. Fat cells were prepared from epididymal adipose tissue using 140-150 g rats (Wistar strain). Fat pads from 3 rats were cut into small pieces and incubated in 8 ml of Krebs ringer bicarbonate containing 2% albumin plus 24 mg of collagenase for 25 minutes at 37° C. The isolated cells were filtered and washed in 3×10 ml Krebs ringer phosphate medium containing 30 mg/ml of bovine serum albumin (Fraction v, Sigma), the pH was adjusted to 7.4 with NaOH after addition of albumin. The washed cells were also resuspended in Krebs ringer phosphate (10 ml of medium/g of original tissue).
For measurement of enzyme activities, three incubation vessels were set up, each contained 5 ml cells. There were no additions to the first, the second contained 20 μl insulin (25 mU/ml) and the third 10 μl placenta IPG. […]
The reaction was stopped with 0.5 ml cold buffer (100 mM KF/10 mM EDTA/1 mM benzamidine (4), pH 7.0) and the cells homogenized and transferred to Eppendorf tubes. These were spun at 10,000 g for 15 min and the middle layer collected for enzyme assay all tubes were set up in duplicate and measured in the presence of 0.01 mM glucose 6-phosphate except the maximally activated glycogen synthase tube which contained 7.2 mM glucose 6-phosphate. […] Glycogen synthase activity is expressed as a percentage of the total synthase activity (G6P maximum).

rat liver = experiment: IPG release in rat liver following infusion with insulin; assay type: in vivo; settings: 2 minutes after insulin infusion
[2] = reactivation experiment, 10 μl P'ase and 5 ul of sample, 2.7 mM Mn, 1.8 mM Zn, Treated = dithizone

Molecule | effect on P'ase activity ([1]; 10^−4M Mn (assay no: 3)) | PDH phosphatase (activity) ([1]; +Mg2+ + Ca2+) | PDH phosphatase (activity) ([1]; +Mg2+, no Ca2+) | Units/g ([1]; dithizone experiment, Vol used 5 μl, Treated = dithizone, Mn 2.7 mM) [Units/g] | % stimulation ([1]; dithizone experiment, Vol used 5 μl, liver P-type 1 g liver in 10 μl water, Treated = dithizone, Mn 2.7 mM) [%] | % stimulation [1, 2] | Stimulation as % of G6P Maximum (Glycogen synthase) [%] | increase in PDH phosphatase stimulating activity of rat liver (rat liver)
[Mn+2] [Mn, manganese] | no effect | Δ 0.680 OD/min (2) | Δ 0.000 OD/min (6) | 0 | −11 | +12% | – | –
[Zn+2] [Zn] | – | – | – | – | – | +122% | – | –
insulin | – | – | – | – | – | – | 6.54 | two-fold increase in activity
